# Experimental data taken from patent publication US7772241B2, “Variolin derivatives and their use as antitumor agents” (Pharma Mar S.A., priority 2001, dated 2010).
# Key:
# A-549 = assay: Inhibition of cells growth by colorimetric (SRB) assay, A-549; conditions: for GI50 / CC50: Homo sapiens, A549, 48 h; for GI50: read-out: GI50 A-549, SRB assay, 48 hours exposure; for CC50: read-out: LC50 A-549, SRB assay, 48 hours exposure; for TGI A-549: SRB assay, 48 hours exposure
# From the text: (§1) The finality of these assays is to interrupt the growth of a “in vitro” tumor cell culture by means a continued exhibition of the cells to the sample to be testing.
# (§2) This form of the assay employs 96 well cell culture microplates of 9 mm diameter (Faircloth, 1988; Mosmann, 1983). Most of the cell lines are obtained from American Type Culture Collection (ATCC) derived from different human cancer types.
# (§3) Cells are maintained in RPMI 1640 10% FBS, supplemented with 0.1 g/l penicillin and 0.1 g/l streptomycin sulphate and then incubated at 37° C., 5% CO2 and 98% humidity. For the experiments, cells were harvested from subconfluent cultures using trypsin and resuspended in fresh medium before plating.
# (§4) Cells are seeded in 96 well microtiter plates, at 5×10^3 cells per well in aliquots of 195 μl medium, and they are allowed to attach to the plate surface by growing in drug free medium for 18 hours. Afterward, samples are added in aliquots of 5 μl in a ranging from 10 to 10^−8 μg/ml, dissolved in DMSO/EtOH/PBS (0.5:0.5:99). After 48 hours exposure, the antitumor effect are measured by the SRB methodology: cells are fixed by adding 50 μl of cold 50% (wt/vol) trichloroacetic acid (TCA) and incubating for 60 minutes at 4° C. Plates are washed with deionized water and dried. One hundred μl of SRB solution (0.4% wt/vol in 1% acetic acid) is added to each microtiter well and incubated for 10 minutes at room temperature. Unbound SRB is removed by washing with 1% acetic acid. Plates are air dried and bound stain is solubilized with Tris buffer. Optical densities are read on a automated spectrophotometric plate reader at a single wavelength of 490 nm.
# (§5) The values for mean +/−SD of data from triplicate wells are calculated. Some parameters for cellular responses can be calculated: GI=growth inhibition, TGI=total growth inhibition (cytostatic effect) and LC=cell killing (cytotoxic effect).
# HT-29 = assay: Inhibition of cells growth by colorimetric (SRB) assay, HT-29; conditions: for GI50 / CC50: Homo sapiens, HT-29, 48 h; for GI50: read-out: GI50 HT-29, SRB assay, 48 hours exposure; for CC50: read-out: LC50 HT-29, SRB assay, 48 hours exposure; for TGI HT-29: SRB assay, 48 hours exposure
# From the text: as §1, §2, §3, §4, §5
# IGROV-ET = assay: Inhibition of cells growth by colorimetric (SRB) assay, IGROV-ET; conditions: for GI50 / CC50: Homo sapiens, 48 h; for GI50: read-out: GI50 IGROV-ET, SRB assay, 48 hours exposure; for CC50: read-out: LC50 IGROV-ET, SRB assay, 48 hours exposure; for TGI IGROV-ET: SRB assay, 48 hours exposure
# From the text: as §1, §2, §3, §4, §5
# PANC-1 = assay: Inhibition of cells growth by colorimetric (SRB) assay, PANC-1; conditions: for GI50 / CC50: Homo sapiens, PANC-1, 48 h; for GI50: read-out: GI50 PANC-1, SRB assay, 48 hours exposure; for CC50: read-out: LC50 PANC-1, SRB assay, 48 hours exposure; for TGI PANC-1: SRB assay, 48 hours exposure
# From the text: as §1, §2, §3, §4, §5
# IGROV-1 = assay: Inhibition of cells growth by colorimetric (SRB) assay, IGROV-1; conditions: for GI50 / CC50: Homo sapiens, IGROV-1, 48 h; for GI50: read-out: GI50 IGROV, SRB assay, 48 hours exposure; for CC50: read-out: LC50 IGROV, SRB assay, 48 hours exposure; for TGI IGROV: SRB assay, 48 hours exposure
# From the text: as §1, §2, §3, §4, §5
# LoVo-Dox = assay: Inhibition of cells growth by colorimetric (SRB) assay, LoVo-Dox; conditions: for GI50 / CC50: Homo sapiens, 48 h; for GI50: read-out: GI50 LOVO-DOX, SRB assay, 48 hours exposure; for CC50: read-out: LC50 LOVO-DOX, SRB assay, 48 hours exposure; for TGI LOVO-DOX: SRB assay, 48 hours exposure
# From the text: as §1, §2, §3, §4, §5
# SK-OV-3 = assay: Inhibition of cells growth by colorimetric (SRB) assay, SK-OV-3; conditions: for GI50 / CC50: Homo sapiens, SK-OV-3, 48 h; for GI50: read-out: GI50 SKOV-3, SRB assay, 48 hours exposure; for CC50: read-out: LC50 SKOV-3, SRB assay, 48 hours exposure; for TGI SKOV-3: SRB assay, 48 hours exposure
# From the text: as §1, §2, §3, §4, §5
# SK-MEL-28 = assay: Inhibition of cells growth by colorimetric (SRB) assay, SK-MEL-28; conditions: for GI50 / CC50: Homo sapiens, SK-MEL-28, 48 h; for GI50: read-out: GI50 MEL-28, SRB assay, 48 hours exposure; for CC50: read-out: LC50 MEL-28, SRB assay, 48 hours exposure; for TGI MEL-28: SRB assay, 48 hours exposure
# From the text: as §1, §2, §3, §4, §5
# LoVo = assay: Inhibition of cells growth by colorimetric (SRB) assay, LoVo; conditions: for GI50 / CC50: Homo sapiens, LoVo, 48 h; for GI50: read-out: GI50 LOVO, SRB assay, 48 hours exposure; for CC50: read-out: LC50 LOVO, SRB assay, 48 hours exposure; for TGI LOVO: SRB assay, 48 hours exposure
# From the text: as §1, §2, §3, §4, §5
# LNCaP = assay: Inhibition of cells growth by colorimetric (SRB) assay, LNCaP; conditions: for GI50 / CC50: Homo sapiens, LNCaP, 48 h; for GI50: read-out: GI50 LN-caP, SRB assay, 48 hours exposure; for CC50: read-out: LC50 LN-caP, SRB assay, 48 hours exposure; for TGI LN-caP: SRB assay, 48 hours exposure
# From the text: as §1, §2, §3, §4, §5
# DU-145 = assay: Inhibition of cells growth by colorimetric (SRB) assay, DU-145; conditions: for GI50 / CC50: Homo sapiens, DU-145, 48 h; for GI50: read-out: GI50 DU-145, SRB assay, 48 hours exposure; for CC50: read-out: LC50 DU-145, SRB assay, 48 hours exposure; for TGI DU-145: SRB assay, 48 hours exposure
# From the text: as §1, §2, §3, §4, §5
# K-562 = assay: Inhibition of cells growth by colorimetric (SRB) assay, K-562; conditions: for GI50 / CC50: Homo sapiens, K562, 48 h; for GI50: read-out: GI50 K-562, SRB assay, 48 hours exposure; for CC50: read-out: LC50 K-562, SRB assay, 48 hours exposure; for TGI K-562: SRB assay, 48 hours exposure
# From the text: as §1, §2, §3, §4, §5
structure (smiles),measurement,setting,value
COc1ccc(CNc2nccc(-c3c4c(OCc5ccccc5)ccnc4n4c(NCc5ccc(OC)cc5)nccc34)n2)cc1 [Compound 53],GI50,A-549,16 µM
same,CC50,A-549,16 µM
same,TGI A-549,A-549,1.60E−05
same,GI50,HT-29,16 µM
same,CC50,HT-29,16 µM
same,TGI HT-29,HT-29,1.60E−05
Nc1nccc2c(-c3ccnc(O)n3)c3c(O)ccnc3n12 [Compound 106],GI50,IGROV-ET,4.97 µM
same,CC50,IGROV-ET,24.4 µM
same,TGI IGROV-ET,IGROV-ET,1.10E−05
same,GI50,PANC-1,6.44 µM
same,CC50,PANC-1,24.5 µM
same,TGI PANC-1,PANC-1,1.71E−05
same,GI50,A-549,18.2 µM
same,CC50,A-549,24.5 µM
same,TGI A-549,A-549,2.45E−05
same,GI50,HT-29,24.5 µM
same,CC50,HT-29,24.5 µM
same,TGI HT-29,HT-29,2.45E−05
same,GI50,IGROV-1,6.69 µM
same,CC50,IGROV-1,24.1 µM
same,TGI IGROV,IGROV-1,1.27E−05
same,GI50,LoVo-Dox,8.18 µM
same,CC50,LoVo-Dox,24.5 µM
same,TGI LOVO-DOX,LoVo-Dox,2.45E−05
same,GI50,SK-OV-3,5.73 µM
same,CC50,SK-OV-3,24.5 µM
same,TGI SKOV-3,SK-OV-3,1.51E−05
same,GI50,SK-MEL-28,8.87 µM
same,CC50,SK-MEL-28,24.5 µM
same,TGI MEL-28,SK-MEL-28,2.45E−05
same,GI50,LoVo,24.5 µM
same,CC50,LoVo,24.5 µM
same,TGI LOVO,LoVo,2.45E−05
same,GI50,LNCaP,6.42 µM
same,CC50,LNCaP,24.5 µM
same,TGI LN-caP,LNCaP,1.64E−05
same,GI50,DU-145,16.2 µM
same,CC50,DU-145,24.5 µM
same,TGI DU-145,DU-145,2.45E−05
same,GI50,K-562,10.6 µM
same,CC50,K-562,24.5 µM
same,TGI K-562,K-562,2.45E−05
CSc1nccc(-c2c3ccc(C)nc3n3c(SC)nccc23)n1 [Compound 22],GI50,A-549,0.85 µM
same,CC50,A-549,22.7 µM
same,TGI A-549,A-549,2.27E−06
same,GI50,HT-29,2.83 µM
same,CC50,HT-29,19.8 µM
same,TGI HT-29,HT-29,8.50E−06
CC(C)c1c2cccnc2n2c(N)nccc12 [Compound 66],GI50,IGROV-ET,9.81 µM
same,CC50,IGROV-ET,39.8 µM
same,TGI IGROV-ET,IGROV-ET,1.98E−05
same,GI50,PANC-1,8 µM
same,CC50,PANC-1,≥ 44.2 µM
same,TGI PANC-1,PANC-1,2.16E−05
same,GI50,A-549,16.1 µM
same,CC50,A-549,≥ 44.2 µM
same,TGI A-549,A-549,4.42E−05
same,GI50,HT-29,17.9 µM
same,CC50,HT-29,≥ 44.2 µM
same,TGI HT-29,HT-29,4.42E−05
same,GI50,IGROV-1,9.99 µM
same,CC50,IGROV-1,30.4 µM
same,TGI IGROV,IGROV-1,1.74E−05
same,GI50,LoVo-Dox,2.22 µM
same,CC50,LoVo-Dox,≥ 44.2 µM
same,TGI LOVO-DOX,LoVo-Dox,4.42E−05
same,GI50,SK-OV-3,15.7 µM
same,CC50,SK-OV-3,≥ 44.2 µM
same,TGI SKOV-3,SK-OV-3,3.04E−05
same,GI50,SK-MEL-28,8.84 µM
same,CC50,SK-MEL-28,39.6 µM
same,TGI MEL-28,SK-MEL-28,1.87E−05
same,GI50,LoVo,17.1 µM
same,CC50,LoVo,≥ 44.2 µM
same,TGI LOVO,LoVo,4.42E−05
same,GI50,LNCaP,12.5 µM
same,CC50,LNCaP,≥ 44.2 µM
same,TGI LN-caP,LNCaP,2.55E−05
same,GI50,DU-145,10 µM
same,CC50,DU-145,≥ 44.2 µM
same,TGI DU-145,DU-145,2.59E−05
same,GI50,K-562,21.6 µM
same,CC50,K-562,≥ 44.2 µM
same,TGI K-562,K-562,4.42E−05
COC(=O)C(C(=O)OC)c1nccc(-c2c3cccnc3n3c(N)nccc23)n1 [Compound 74],GI50,A-549,5.35 µM
same,CC50,A-549,21.3 µM
same,TGI A-549,A-549,1.07E−05
same,GI50,HT-29,1.22 µM
same,CC50,HT-29,25.5 µM
same,TGI HT-29,HT-29,2.55E−05
COc1ccc2nc3c(cc2c1)c(-c1ccnc(SC)n1)c1ccnc(SC)n13 [Compound 17b],GI50,A-549,7.16 µM
same,CC50,A-549,19.1 µM
same,TGI A-549,A-549,1.19E−05
same,GI50,HT-29,7.16 µM
same,CC50,HT-29,19.1 µM
same,TGI HT-29,HT-29,1.19E−05
CCOc1nccc(-c2c3c(OCc4ccccc4)ccnc3n3c(N)nccc23)n1 [Compound 103],GI50,A-549,11.5 µM
same,CC50,A-549,24.2 µM
same,TGI A-549,A-549,2.42E−05
same,GI50,HT-29,11.9 µM
same,CC50,HT-29,24.2 µM
same,TGI HT-29,HT-29,2.42E−05
